# Assay results as given in ChEMBL document CHEMBL3045108, “Advanced QSRR models of toxicological screening of basic drugs in whole blood by UPLC-TOFMS” (Med Chem Res, 2012).
# Tested on: Blood
# Experiment: Drug level in Homo sapiens (human) whole blood assessed as retention time by UPLC-TOF-MS analysis
row,Compound,Retention_time [min]
1,O=C1Nc2ccc(Cl)cc2C(c2ccccc2Cl)=NC1O (stereo not given) [LORAZEPAM],6.02
2,CN1C(=O)C(O)N=C(c2ccccc2Cl)c2cc(Cl)ccc21 (stereo not given) [LORMETAZEPAM],6.41
3,CCCCc1nc(Cl)c(CO)n1Cc1ccc(-c2ccccc2-c2nn[nH]n2)cc1 [LOSARTAN],6.09
4,CCN(CC)C(=O)[C@@H]1C=C2c3cccc4[nH]cc(c34)C[C@H]2N(C)C1 [LYSERGIDE],4.88
5,CN1CCN=C(c2ccccc2)c2cc(Cl)ccc21 [MEDAZEPAM],5.45
6,CCOC(=O)C1(c2ccccc2)CCN(C)CC1 [MEPERIDINE],4.68
7,Cc1cccc(C)c1NC(=O)C1CCCCN1C (stereo not given) [MEPIVACAINE],3.46
8,COc1cc(CCN)cc(OC)c1OC [MESCALINE],2.77
9,CCC(=O)C(CC(C)N(C)C)(c1ccccc1)c1ccccc1 (stereo not given) [METHADONE],6.03
10,CN[C@@H](C)Cc1ccccc1 [METHAMPHETAMINE],2.86
11,Cc1ccccc1-n1c(C)nc2ccccc2c1=O [METHAQUALONE],6.02
12,COC(=O)C(c1ccccc1)C1CCCCN1 (stereo not given) [METHYLPHENIDATE],4.16
13,CCN(CC)CCNC(=O)c1cc(Cl)c(N)cc1OC [METOCLOPRAMIDE],3.64
14,CN1CCN2c3ccccc3Cc3ccccc3C2C1 (stereo not given) [MIANSERIN],5.48
15,Cc1ncc2n1-c1ccc(Cl)cc1C(c1ccccc1F)=NC2 [MIDAZOLAM],5.45
16,CNC(C)Cc1ccc2c(c1)OCO2 (stereo not given) [MIDOMAFETAMINE],2.89
17,CN1CCN2c3ncccc3Cc3ccccc3C2C1 (stereo not given) [MIRTAZAPINE],3.91
18,O=C(NCCN1CCOCC1)c1ccc(Cl)cc1 [MOCLOBEMIDE],3.39
19,C=CCN1CC[C@]23c4c5ccc(O)c4O[C@H]2C(=O)CC[C@@]3(O)[C@H]1C5 [NALOXONE],2.46
20,COC(=O)C1=C(C)NC(C)=C(C(=O)OC)C1c1ccccc1[N+](=O)[O-] [NIFEDIPINE],6.4
21,COCCOC(=O)C1=C(C)NC(C)=C(C(=O)OC(C)C)C1c1cccc([N+](=O)[O-])c1 (stereo not given) [NIMODIPINE],7.14
22,O=C1CN=C(c2ccccc2)c2cc([N+](=O)[O-])ccc2N1 [NITRAZEPAM],5.8

row,Compound,Retention_time [min]
1,O=C1CC(=O)N(c2ccccc2)c2cc(Cl)ccc2N1 [NOR-CLOBAZAM],5.61
2,NCCC(Oc1ccc(C(F)(F)F)cc1)c1ccccc1 (stereo not given) [NORFLUOXETINE],6
3,CNCCC=C1c2ccccc2CCc2ccccc21 [NORTRIPTYLINE],5.92
4,COc1ccc2c(c1OC)C(=O)O[C@@H]2[C@H]1c2c(cc3c(c2OC)OCO3)CCN1C [NOSCAPINE],4.99
5,Cc1ccccc1C(OCCN(C)C)c1ccccc1 (stereo not given) [ORPHENADRINE],5.75
6,NC(=O)N1c2ccccc2CC(=O)c2ccccc21 [OXCARBAZEPINE],5.29
7,COc1ccc2c3c1O[C@H]1C(=O)CC[C@@]4(O)[C@@H](C2)N(C)CC[C@]314 [OXYCODONE],2.67
8,CN1CC[C@]23c4c5ccc(O)c4O[C@H]2C(=O)CC[C@@]3(O)[C@H]1C5 [OXYMORPHONE],1.78
9,COc1ccc(CC(C)N)cc1 (stereo not given) [PARA-METHOXYAMPHETAMINE],2.91
10,Fc1ccc([C@@H]2CCNC[C@H]2COc2ccc3c(c2)OCO3)cc1 [PAROXETINE],5.66
11,O=C1CN=C(c2ccccc2Cl)c2cc(Br)ccc2N1 [PHENAZEPAM],6.45
12,c1ccc(C2(N3CCCCC3)CCCCC2)cc1 [PHENCYCLIDINE],5.23
13,CC(C)(N)Cc1ccccc1 [PHENTERMINE],3.08
14,O=c1[nH]c2ccccc2n1C1CCN(CCCC(c2ccc(F)cc2)c2ccc(F)cc2)CC1 [PIMOZIDE],6.28
15,CC(C)NCC(O)COc1cccc2[nH]ccc12 (stereo not given) [PINDOLOL],3
16,O=C1CN=C(c2ccccc2)c2cc(Cl)ccc2N1CC1CC1 [PRAZEPAM],7.25
17,OC(CCN1CCCC1)(c1ccccc1)C1CCCCC1 (stereo not given) [PROCYCLIDINE],5.78
18,CC(CN1c2ccccc2Sc2ccccc21)N(C)C (stereo not given) [PROMETHAZINE],5.7
19,CCC(=O)O[C@](Cc1ccccc1)(c1ccccc1)[C@H](C)CN(C)C [PROPOXYPHENE],5.98
20,CC(C)NCC(O)COc1cccc2ccccc12 (stereo not given) [PROPRANOLOL],5.28
21,CN[C@@H](C)[C@@H](O)c1ccccc1 [PSEUDOEPHEDRINE],2.28
22,COc1ccc(CN(CCN(C)C)c2ccccn2)cc1 [PYRILAMINE],4.57

row,Compound,Retention_time [min]
1,Fc1ccccc1C1=NCC(=S)N(CC(F)(F)F)c2ccc(Cl)cc21 [QUAZEPAM],7.59
2,OCCOCCN1CCN(C2=Nc3ccccc3Sc3ccccc32)CC1 [QUETIAPINE],5.35
3,CCOc1ccccc1OC(c1ccccc1)C1CNCCO1 (stereo not given) [REBOXETINE],5.6
4,OCc1cc(C(O)CNCCCCCCOCCCCc2ccccc2)ccc1O (stereo not given) [SALMETEROL],6.14
5,C#CCN(C)[C@H](C)Cc1ccccc1 [SELEGILINE],3.55
6,O=C1NCCN1CCN1CCC(c2cn(-c3ccc(F)cc3)c3ccc(Cl)cc23)CC1 [SERTINDOLE],6.3
7,CN[C@H]1CC[C@@H](c2ccc(Cl)c(Cl)c2)c2ccccc21 [SERTRALINE],6.04
8,CC(C)NCC(O)c1ccc(NS(C)(=O)=O)cc1 (stereo not given) [SOTALOL],2.02
9,CCN1CCCC1CNC(=O)c1cc(S(N)(=O)=O)ccc1OC (stereo not given) [SULPIRIDE],2.21
10,CC(N)Cc1ccc2c(c1)OCO2 (stereo not given) [TENAMFETAMINE],2.7
11,CC(C)(C)NCC(O)c1cc(O)cc(O)c1 (stereo not given) [TERBUTALINE],1.93
12,CN1[C@H]2CC[C@@H]1[C@@H](C(=O)O)[C@@H](OC(=O)c1ccccc1)C2 [THERACYS],3.48
13,CCCCNC(=O)NS(=O)(=O)c1ccc(C)cc1 [TOLBUTAMIDE],6.16
14,COc1cccc(C2(O)CCCCC2CN(C)C)c1 (stereo not given) [TRAMADOL],4.09
15,Cc1nnc2n1-c1ccc(Cl)cc1C(c1ccccc1Cl)=NC2 [TRIAZOLAM],6.15
16,CC(CN(C)C)CN1c2ccccc2CCc2ccccc21 (stereo not given) [TRIMIPRAMINE],6.05
17,COc1ccc(C(CN(C)C)C2(O)CCCCC2)cc1 (stereo not given) [VENLAFAXINE],5.06
18,CCN(C(C)=O)c1cccc(-c2ccnc3c(C#N)cnn23)c1 [ZALEPLON],5.68
19,CN(C)CCc1c[nH]c2ccc(C[C@H]3COC(=O)N3)cc12 [ZOLMITRIPTAN],2.7
20,Cc1ccc(-c2nc3ccc(C)cn3c2CC(=O)N(C)C)cc1 [ZOLPIDEM],4.78
21,CN1CCN(C(=O)OC2c3nccnc3C(=O)N2c2ccc(Cl)cn2)CC1 (stereo not given) [ZOPICLONE],3.88
